Results on four molecules are retold here after US8497278B2, “Imidazo[1,2-a]pyridine compounds” (priority 2008, dated 2013).

One assay has as its system rhesus monkeys. In words: Rhesus monkey conflict test. The assay is classed as in vivo. The settings on record: cumulative dosing. From the text:
Conflict protocol: The conflict procedure is a well established operant conditioning approach to evaluate anxiolytic-like effects of test compounds. In this procedure, positively-reinforced behavior is suppressed by response-contingent administration of a noxious stimulus (i.e., mild electric shock). Compounds with anxiolytic effects in humans (e.g., benzodiazepines) characteristically increase rates of responding that are suppressed by shock and are referred to as anti-conflict or anxiolytic-like effects. […] In addition to anxiolytic-like effects, conflict procedures also provide an assessment of the ability of the animal to perform operant lever pressing. This is typically assessed by including lever pressing in the absence of the noxious stimulus. Most anxiolytic compounds will decrease rates of responding in the absence of shock at doses higher than those that induce anxiolytic-like effects. The effects contributing to anxiolytic-induced decreases in non-suppressed responding are not well understood, but likely consist of a combination of motor co-ordination deficits and sedative effects.
Adult rhesus monkeys were used in these studies (n=1-4). Weights of the monkeys ranged from 6.2 to 10.5 kg. The animals had been previously trained using the conflict procedure. Animals were maintained at 85-95% of their free-feeding weights by manipulation of food intake. Monkeys were individually housed with water available ad libitum, and maintained on a 12 hour lights-on/12 hour lights-off cycle (lights on at 0600 a.m.). Monkeys received Harlan Teklad diet (15% Primate Diet) as well as supplemental feeding (fruits, vegetables, and commercially available primate treats) daily. They were also given toys and video enrichment when not in an experimental session. Each animal was prepared prior to the study with a chronic indwelling venous catheter for drug delivery. A polyvinyl chloride catheter was implanted in a jugular, femoral or brachial vein under isoflurane anesthesia and aseptic conditions. The proximal end of the catheter terminated above the right atrium, and the distal end was passed subcutaneously to exit in the midscapular region. Experimental sessions began 5-7 days following surgery. Catheters had been implanted approximately 3 months to 1 year prior to the initiation of the study. During experimental sessions, monkeys were seated in primate chairs that were placed in ventilated sound-attenuating chambers. A single response lever was mounted on the wall of the chamber in front of the monkey. Each press of a lever produced an audible click and was recorded as a response via electromechanical equipment, a computer interface, and PC with specialized software. Food pellets could be delivered into a tray located next to the lever. Mild electric shock could be delivered to the bottom of the feet via brass electrodes that were fitted to shoes. Red and green lights mounted above the levers could be illuminated to serve as visual stimuli.
Monkeys were trained under a multiple schedule of food reinforcement adapted from Spealman (1979). A daily session consisted of 4 cycles, each preceded by a 10-min time out period in which all lights in the chamber were off and responding had no programmed consequences. Each cycle consisted of two components, component 1 and 2. Component 1 was signaled by red stimulus lights and consisted of an 18-response schedule (FR18) of food pellet delivery (i.e., the animal receives a food pellet following 18 responses). Component 2, signaled by green stimulus lights, followed immediately and consisted of the FR18 schedule of food delivery combined with a FR20 schedule of foot shock delivery (1.5-3.0 mA, adjusted for each monkey based on individual performance, 0.25 sec duration). Delivery of a food pellet (FR18 schedule) was followed by a 10 sec time out in which responses had no programmed consequences. […]

The target of assay [1] is T1, α3 subtype containing GABA-A receptors (Homo sapiens, UniProt P18507+P34903).
T1 construct: expressed in transfected cells; host or cells: Xenopus laevis oocytes, cRNA injected
T1 sequence (P34903 29-492): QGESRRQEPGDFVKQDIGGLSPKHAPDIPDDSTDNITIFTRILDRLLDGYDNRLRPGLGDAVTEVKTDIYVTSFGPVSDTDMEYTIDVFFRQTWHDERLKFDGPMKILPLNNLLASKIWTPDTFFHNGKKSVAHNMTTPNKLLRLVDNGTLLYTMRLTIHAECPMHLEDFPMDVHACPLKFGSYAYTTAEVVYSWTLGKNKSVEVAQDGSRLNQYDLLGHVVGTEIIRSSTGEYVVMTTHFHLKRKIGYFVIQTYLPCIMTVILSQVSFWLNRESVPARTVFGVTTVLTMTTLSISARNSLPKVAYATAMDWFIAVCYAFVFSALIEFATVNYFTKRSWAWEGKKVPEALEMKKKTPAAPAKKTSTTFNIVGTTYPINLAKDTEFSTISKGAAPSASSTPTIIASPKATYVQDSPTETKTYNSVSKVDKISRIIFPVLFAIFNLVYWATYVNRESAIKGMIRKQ
T1 sequence (P28472 26-473 partner): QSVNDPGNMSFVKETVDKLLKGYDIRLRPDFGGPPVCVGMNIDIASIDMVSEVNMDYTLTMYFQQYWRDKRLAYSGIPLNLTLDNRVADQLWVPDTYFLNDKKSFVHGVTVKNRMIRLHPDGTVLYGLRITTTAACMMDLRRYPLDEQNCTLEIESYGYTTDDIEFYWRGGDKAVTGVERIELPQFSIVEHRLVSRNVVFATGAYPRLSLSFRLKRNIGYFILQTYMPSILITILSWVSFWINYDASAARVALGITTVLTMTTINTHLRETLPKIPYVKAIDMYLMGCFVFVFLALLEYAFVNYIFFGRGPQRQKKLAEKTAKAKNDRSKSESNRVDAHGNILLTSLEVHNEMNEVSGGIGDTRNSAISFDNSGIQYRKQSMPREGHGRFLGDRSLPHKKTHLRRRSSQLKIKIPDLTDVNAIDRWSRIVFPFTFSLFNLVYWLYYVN
T1 sequence (P18507 40-475): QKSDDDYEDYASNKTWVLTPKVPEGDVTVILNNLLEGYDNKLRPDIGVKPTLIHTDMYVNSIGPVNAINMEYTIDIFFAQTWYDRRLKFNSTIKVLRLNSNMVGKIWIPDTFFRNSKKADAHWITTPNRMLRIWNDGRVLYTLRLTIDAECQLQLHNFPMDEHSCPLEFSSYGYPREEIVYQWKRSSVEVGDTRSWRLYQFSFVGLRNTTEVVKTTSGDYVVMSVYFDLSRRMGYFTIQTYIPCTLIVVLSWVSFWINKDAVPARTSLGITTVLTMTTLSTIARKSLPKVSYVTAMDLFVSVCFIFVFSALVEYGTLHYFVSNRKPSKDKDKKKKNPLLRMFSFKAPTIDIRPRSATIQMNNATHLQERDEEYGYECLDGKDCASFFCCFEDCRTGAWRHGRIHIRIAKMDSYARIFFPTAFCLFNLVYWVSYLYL
Description: Two-electrode voltage clamp electrophysiology in Xenopus oocytes, potentiation of GABA EC20 response, α3. The format is cell-based. As to conditions: 100 nM compound, read-out: Percentage of potentiation alpha3. Summed up: (§1)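 Test compounds (100 nM) were assessed for enhancement of a 60 μM (EC20) GABA current in two-electrode-clamped oocytes (−80 mV, ND96 pH 7.5) injected with human αx (1, 2, 3 or 5), β3 and γ2L cRNA. Each oocyte received a 1 μM chlordiazepoxide standard first and was excluded if expression or γ2L incorporation was insufficient.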
A general note: Two-electrode voltage clamp holds a large cell at a set potential and records current.

Assay [2] has as its target T2, α5 subtype containing GABA-A receptors (Homo sapiens, UniProt P18507+P31644).
T2 construct: expressed in transfected cells; host or cells: Xenopus laevis oocytes, cRNA injected
Description: Two-electrode voltage clamp electrophysiology in Xenopus oocytes, potentiation of GABA EC20 response, α5. The format is cell-based. As to conditions: 100 nM compound, read-out: Percentage of potentiation alpha5. Summed up:
as §1

SMILES strings stand for the structures. Marks after values point to notes of the source that are not given here.

T2 sequence (P31644 32-462): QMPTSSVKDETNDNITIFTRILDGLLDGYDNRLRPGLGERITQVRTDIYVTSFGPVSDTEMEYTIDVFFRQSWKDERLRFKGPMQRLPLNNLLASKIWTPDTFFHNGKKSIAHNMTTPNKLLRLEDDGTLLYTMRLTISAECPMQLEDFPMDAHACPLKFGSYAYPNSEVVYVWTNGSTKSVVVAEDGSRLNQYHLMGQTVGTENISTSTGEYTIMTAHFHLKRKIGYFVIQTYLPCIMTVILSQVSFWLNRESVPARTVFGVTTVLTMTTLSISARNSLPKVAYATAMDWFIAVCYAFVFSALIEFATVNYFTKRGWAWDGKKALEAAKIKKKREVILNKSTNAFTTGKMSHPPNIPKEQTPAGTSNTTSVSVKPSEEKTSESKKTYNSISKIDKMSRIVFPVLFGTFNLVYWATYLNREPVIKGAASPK
T2 sequence (P28472 26-473 partner): as the sequence (P28472 26-473 partner) above
T2 sequence (P18507 40-475): as the sequence (P18507 40-475) above

For the molecule `Clc1ccc(-c2nc3cccnn3c2Cn2cncn2)cc1` [Compound 32, 3-((1H-1,2,4-triazol-1-yl)methyl)-2-(4-chlorophenyl)imidazo[1,2-b]pyridazine], the “Non-Suppressed Response Rates Mean ± S.E.M.” value with rhesus monkeys (0.1 mg/kg IV) was found to be 2.50 ± 0.29 Responses/Second; in the assay on rhesus monkeys (0.3 mg/kg IV), 2.58 ± 0.44 Responses/Second; in the assay with rhesus monkeys (1 mg/kg IV), 1.82 ± 0.67 Responses/Second; in the assay with rhesus monkeys (3 mg/kg IV), 1.77 ± 0.64 Responses/Second. In addition, the “Suppressed Response Rates Mean ± S.E.M.” value was determined as 0.03 ± 0.01 Responses/Second with rhesus monkeys (0.1 mg/kg IV), 0.24 ± 0.17 Responses/Second in the assay on rhesus monkeys (0.3 mg/kg IV), 1.1 ± 0.67 Responses/Second in the assay with rhesus monkeys (1 mg/kg IV) and 1.19 ± 0.36 Responses/Second with rhesus monkeys (3 mg/kg IV).
Regarding `NC(=O)c1ncn(Cc2c(-c3ccc(Cl)cc3)nc3ccccn23)n1` [Compound 72, 1-((2-(4-chlorophenyl)imidazo[1,2-a]pyridin-3-yl)methyl)-1H-1,2,4-triazole-3-carboxamide], the activation at 0.1 µM in assay [1] is 10 to 50%; in assay [2], -10 to 10%.
`Cc1ccn(Cc2c(-c3ccc(Cl)cc3)nc3ccccn23)c(=O)n1` [Compound 105, 1-((2-(4-chlorophenyl)imidazo[1,2-a]pyridin-3-yl)methyl)-4-methylpyrimidin-2(1H)-one]: the “Non-Suppressed Response Rates Mean ± S.E.M.” value in the assay with rhesus monkeys (0.1 mg/kg IV) turned out to be 2.68 ± 0.37 Responses/Second; in the assay with rhesus monkeys (0.3 mg/kg IV) it was 2.68 ± 0.39 Responses/Second; with rhesus monkeys (1 mg/kg IV), 2.78 ± 0.36 Responses/Second; in the assay on rhesus monkeys (3 mg/kg IV) it was 1.02 ± 0.57 Responses/Second. Moreover, the “Suppressed Response Rates Mean ± S.E.M.” value with rhesus monkeys (0.1 mg/kg IV) was found to be 0.02 ± 0.01 Responses/Second; in the assay with rhesus monkeys (0.3 mg/kg IV), 0.47 ± 0.44 Responses/Second; in the assay with rhesus monkeys (1 mg/kg IV), 0.79 ± 0.45 Responses/Second; with rhesus monkeys (3 mg/kg IV) it was 0.46 ± 0.32 Responses/Second.
As to `Cn1ncnc1Cc1c(-c2ccc(F)cc2)nc2ccc(F)cn12` [Compound 200, 6-fluoro-2-(4-fluorophenyl)-3-((1-methyl-1H-1,2,4-triazol-5-yl)methyl)imidazo[1,2-a]pyridine], the “Non-Suppressed Response Rates Mean ± S.E.M.” value was found to be 3.2 Responses/Second in the assay with rhesus monkeys (0.3 mg/kg IV); 2.9 Responses/Second in the assay on rhesus monkeys (1 mg/kg IV); 2.4 Responses/Second with rhesus monkeys (1.8 mg/kg IV); 3.1 Responses/Second in the assay with rhesus monkeys (3 mg/kg IV); 3.3 Responses/Second in the assay with rhesus monkeys (5.6 mg/kg IV). Besides, the “Suppressed Response Rates Mean ± S.E.M.” value in the assay with rhesus monkeys (0.3 mg/kg IV) was 0.02 Responses/Second; in the assay with rhesus monkeys (1 mg/kg IV) it was 0.02 Responses/Second; in the assay with rhesus monkeys (1.8 mg/kg IV), 1.4* Responses/Second; with rhesus monkeys (3 mg/kg IV), 1.2* Responses/Second; in the assay on rhesus monkeys (5.6 mg/kg IV), 1.9* Responses/Second.
